Results as given in PMC11207571, “Applicability of MDR1 Overexpressing Abcb1KO-MDCKII Cell Lines for Investigating In Vitro Species Differences and Brain Penetration Prediction” (Pharmaceutics, 2024).

Experiments:
[1] = Bidirectional transport assay, efflux ratio in Abcb1KO-MDCKII-Mock control cells; conditions: dog, MDCK, pH 7.4
Procedure: (§1) Eluent A consisted of 0.1% formic acid in water, eluent B consisted of 0.1% formic acid in acetonitrile. Then, 10 µL samples were injected into the HPLC-MS/MS system. Mass spectrometric detection was performed in SRM mode, and ion transitions for each analyte were optimized during method development. Samples were analyzed in pools, with each pool containing three to four analytes.

human MDR1 [2] = target: T1, human MDR1 (Homo sapiens, UniProt P08183); assay: in vitro; conditions: human, MDCK-MDR1, pH 7.4
Procedure: as §1

rat Mdr1a [3] = target: T2, rat Mdr1a (Rattus norvegicus, UniProt Q6PSM0); assay: Bidirectional transport assay, efflux ratio in Abcb1KO-MDCKII rMDR1 cells; conditions: rat, pH 7.4
Procedure: as §1

mouse Mdr1a [4] = target: T3, mouse Mdr1a (Mus musculus, UniProt P21447); assay: Bidirectional transport assay, efflux ratio in Abcb1KO-MDCKII mMDR1 cells; conditions: mouse, pH 7.4
Procedure: as §1

cynomolgus monkey Mdr1 [5] = target: T4, cynomolgus monkey Mdr1 (Macaca fascicularis, UniProt Q8HZQ6); assay: Bidirectional transport assay, efflux ratio in Abcb1KO-MDCKII cyMDR1 cells; conditions: cynomolgus monkey, pH 7.4
Procedure: as §1

human BCRP = target: T5, human BCRP (Homo sapiens, UniProt Q9UNQ0); assay: in vitro; conditions: human, pH 7.4
T5 sequence (Q9UNQ0 1-655): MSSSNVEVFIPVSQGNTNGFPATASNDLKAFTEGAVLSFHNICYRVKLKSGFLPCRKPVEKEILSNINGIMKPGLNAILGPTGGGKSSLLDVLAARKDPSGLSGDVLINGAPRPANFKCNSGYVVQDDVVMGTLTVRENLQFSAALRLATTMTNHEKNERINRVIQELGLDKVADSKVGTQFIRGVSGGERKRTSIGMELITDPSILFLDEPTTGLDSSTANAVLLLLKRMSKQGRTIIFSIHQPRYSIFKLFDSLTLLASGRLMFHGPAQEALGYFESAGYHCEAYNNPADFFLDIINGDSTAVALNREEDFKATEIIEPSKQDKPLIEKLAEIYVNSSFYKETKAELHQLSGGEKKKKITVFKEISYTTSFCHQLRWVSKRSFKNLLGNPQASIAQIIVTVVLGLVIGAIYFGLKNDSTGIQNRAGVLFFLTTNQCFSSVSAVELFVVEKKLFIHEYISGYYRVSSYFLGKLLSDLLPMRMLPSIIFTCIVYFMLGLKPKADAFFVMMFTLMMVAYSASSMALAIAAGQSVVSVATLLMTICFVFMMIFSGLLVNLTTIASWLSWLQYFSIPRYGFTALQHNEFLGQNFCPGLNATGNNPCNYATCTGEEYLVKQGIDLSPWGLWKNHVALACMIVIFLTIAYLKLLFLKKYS
Procedure: as §1

cynomolgus monkey Mdr1 [6] = target: T4, cynomolgus monkey Mdr1; assay: cell-based
human MDR1 [7] = target: T1, human MDR1; assay: Inhibition of 3H-digoxin or 3H-quinidine bidirectional transport in hMDR1 cells; conditions: IC50 from ER
cynomolgus monkey Mdr1 [8] = target: T4, cynomolgus monkey Mdr1; assay: Inhibition of 3H-digoxin or 3H-quinidine bidirectional transport in cyMDR1 cells; conditions: 60 min, IC50 from ER; for IC50: Inhibition of quinidine transport IC50±SD, cyMDR1, probe 3H-quinidine 0.1 µM
rat Mdr1a [9] = target: T2, rat Mdr1a; assay: Inhibition of 3H-digoxin or 3H-quinidine bidirectional transport in rMDR1 cells; format: cell-based; set-up: rat Mdr1a (NM_133401.1); expressed in transfected cells; host or cells: Abcb1KO-MDCKII (canine kidney, endogenous Abcb1 knocked out), transduced, single-cell clone; conditions: IC50 from ER
mouse Mdr1a [10] = target: T3, mouse Mdr1a; assay: Inhibition of 3H-digoxin or 3H-quinidine bidirectional transport in mMDR1 cells; format: cell-based; set-up: mouse Mdr1a (NM_011076.3); expressed in transfected cells; host or cells: Abcb1KO-MDCKII (canine kidney, endogenous Abcb1 knocked out), transduced, single-cell clone; conditions: IC50 from ER
[11] = Inhibition of digoxin transport IC50±SD, hMDR1, probe 3H-digoxin 1 µM, 120 min
[12] = Inhibition of quinidine transport IC50±SD, hMDR1, probe 3H-quinidine 1 µM, 60 min
[13] = Inhibition of digoxin transport IC50±SD, rMDR1, probe 3H-digoxin 1 µM, 120 min
[14] = Inhibition of quinidine transport IC50±SD, rMDR1, probe 3H-quinidine 1 µM, 30 min
[15] = Inhibition of digoxin transport IC50±SD, mMDR1, probe 3H-digoxin 1 µM, 120 min
[16] = Inhibition of quinidine transport IC50±SD, mMDR1, probe 3H-quinidine 1 µM, 60 min
[17] = probe 3H-quinidine 1 µM, 60 min

T2 sequence (Q6PSM0 1-1272): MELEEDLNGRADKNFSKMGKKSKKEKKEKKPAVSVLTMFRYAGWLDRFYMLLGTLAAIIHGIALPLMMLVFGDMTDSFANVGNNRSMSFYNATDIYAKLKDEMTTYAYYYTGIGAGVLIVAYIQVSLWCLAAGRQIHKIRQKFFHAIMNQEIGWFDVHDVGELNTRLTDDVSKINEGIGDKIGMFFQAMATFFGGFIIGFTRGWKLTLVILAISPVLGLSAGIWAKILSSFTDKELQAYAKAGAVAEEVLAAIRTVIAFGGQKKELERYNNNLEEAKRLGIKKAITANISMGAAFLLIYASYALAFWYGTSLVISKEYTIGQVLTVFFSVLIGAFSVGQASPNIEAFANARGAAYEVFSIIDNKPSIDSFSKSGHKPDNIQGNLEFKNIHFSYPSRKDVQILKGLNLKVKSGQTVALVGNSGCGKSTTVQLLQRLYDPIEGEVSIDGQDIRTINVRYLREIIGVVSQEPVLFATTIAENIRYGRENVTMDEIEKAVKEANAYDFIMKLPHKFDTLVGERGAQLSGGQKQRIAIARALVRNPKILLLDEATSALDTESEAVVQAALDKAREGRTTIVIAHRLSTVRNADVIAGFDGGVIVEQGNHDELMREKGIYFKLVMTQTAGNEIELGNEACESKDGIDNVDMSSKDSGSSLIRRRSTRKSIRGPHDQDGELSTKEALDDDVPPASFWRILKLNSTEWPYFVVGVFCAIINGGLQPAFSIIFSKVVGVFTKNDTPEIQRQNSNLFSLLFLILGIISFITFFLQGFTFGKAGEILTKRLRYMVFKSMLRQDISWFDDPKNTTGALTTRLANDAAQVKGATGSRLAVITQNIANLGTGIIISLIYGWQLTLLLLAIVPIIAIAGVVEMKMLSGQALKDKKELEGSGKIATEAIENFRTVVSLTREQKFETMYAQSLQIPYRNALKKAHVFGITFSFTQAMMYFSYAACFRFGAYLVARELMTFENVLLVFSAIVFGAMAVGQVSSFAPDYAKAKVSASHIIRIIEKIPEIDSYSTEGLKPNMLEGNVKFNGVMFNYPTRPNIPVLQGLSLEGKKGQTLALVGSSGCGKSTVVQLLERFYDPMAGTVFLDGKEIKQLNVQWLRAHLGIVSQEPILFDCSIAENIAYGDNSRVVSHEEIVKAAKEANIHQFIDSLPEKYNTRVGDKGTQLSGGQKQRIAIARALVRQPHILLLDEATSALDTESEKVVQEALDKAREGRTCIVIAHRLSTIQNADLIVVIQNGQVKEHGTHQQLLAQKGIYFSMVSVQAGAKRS
T3 sequence (P21447 whole entry): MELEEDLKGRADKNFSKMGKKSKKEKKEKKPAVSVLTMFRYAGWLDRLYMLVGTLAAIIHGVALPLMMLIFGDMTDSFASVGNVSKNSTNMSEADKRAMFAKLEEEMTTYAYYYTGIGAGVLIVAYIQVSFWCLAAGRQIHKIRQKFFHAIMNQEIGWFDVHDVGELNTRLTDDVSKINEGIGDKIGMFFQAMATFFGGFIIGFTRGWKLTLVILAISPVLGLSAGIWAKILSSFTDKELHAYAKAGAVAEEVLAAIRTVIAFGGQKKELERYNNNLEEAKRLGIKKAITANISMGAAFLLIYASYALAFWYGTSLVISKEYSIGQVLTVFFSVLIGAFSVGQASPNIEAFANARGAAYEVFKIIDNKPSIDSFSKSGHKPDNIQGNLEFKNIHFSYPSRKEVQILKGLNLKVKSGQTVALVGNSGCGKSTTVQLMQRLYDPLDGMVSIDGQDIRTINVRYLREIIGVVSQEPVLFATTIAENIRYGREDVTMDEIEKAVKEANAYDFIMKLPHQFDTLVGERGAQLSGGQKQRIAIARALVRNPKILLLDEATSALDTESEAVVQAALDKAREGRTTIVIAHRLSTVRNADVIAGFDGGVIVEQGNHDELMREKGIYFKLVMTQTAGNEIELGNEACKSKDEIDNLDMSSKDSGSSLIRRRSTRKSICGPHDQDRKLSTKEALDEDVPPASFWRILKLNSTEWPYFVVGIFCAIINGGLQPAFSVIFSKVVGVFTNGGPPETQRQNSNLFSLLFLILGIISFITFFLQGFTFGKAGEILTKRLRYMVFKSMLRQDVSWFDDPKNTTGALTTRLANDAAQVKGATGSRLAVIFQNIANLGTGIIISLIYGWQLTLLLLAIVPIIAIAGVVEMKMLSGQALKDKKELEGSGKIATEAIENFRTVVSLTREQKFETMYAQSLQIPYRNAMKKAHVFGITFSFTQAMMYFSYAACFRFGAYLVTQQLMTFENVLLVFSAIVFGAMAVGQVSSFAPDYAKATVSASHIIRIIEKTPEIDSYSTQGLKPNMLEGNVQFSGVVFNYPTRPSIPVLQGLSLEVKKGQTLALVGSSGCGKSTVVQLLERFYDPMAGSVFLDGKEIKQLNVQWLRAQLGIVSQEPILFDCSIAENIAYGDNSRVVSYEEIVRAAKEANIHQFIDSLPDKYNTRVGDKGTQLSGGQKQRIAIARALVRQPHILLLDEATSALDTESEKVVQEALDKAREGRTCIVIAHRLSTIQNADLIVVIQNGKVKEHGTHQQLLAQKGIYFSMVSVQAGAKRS
T1 sequence (P08183 whole entry): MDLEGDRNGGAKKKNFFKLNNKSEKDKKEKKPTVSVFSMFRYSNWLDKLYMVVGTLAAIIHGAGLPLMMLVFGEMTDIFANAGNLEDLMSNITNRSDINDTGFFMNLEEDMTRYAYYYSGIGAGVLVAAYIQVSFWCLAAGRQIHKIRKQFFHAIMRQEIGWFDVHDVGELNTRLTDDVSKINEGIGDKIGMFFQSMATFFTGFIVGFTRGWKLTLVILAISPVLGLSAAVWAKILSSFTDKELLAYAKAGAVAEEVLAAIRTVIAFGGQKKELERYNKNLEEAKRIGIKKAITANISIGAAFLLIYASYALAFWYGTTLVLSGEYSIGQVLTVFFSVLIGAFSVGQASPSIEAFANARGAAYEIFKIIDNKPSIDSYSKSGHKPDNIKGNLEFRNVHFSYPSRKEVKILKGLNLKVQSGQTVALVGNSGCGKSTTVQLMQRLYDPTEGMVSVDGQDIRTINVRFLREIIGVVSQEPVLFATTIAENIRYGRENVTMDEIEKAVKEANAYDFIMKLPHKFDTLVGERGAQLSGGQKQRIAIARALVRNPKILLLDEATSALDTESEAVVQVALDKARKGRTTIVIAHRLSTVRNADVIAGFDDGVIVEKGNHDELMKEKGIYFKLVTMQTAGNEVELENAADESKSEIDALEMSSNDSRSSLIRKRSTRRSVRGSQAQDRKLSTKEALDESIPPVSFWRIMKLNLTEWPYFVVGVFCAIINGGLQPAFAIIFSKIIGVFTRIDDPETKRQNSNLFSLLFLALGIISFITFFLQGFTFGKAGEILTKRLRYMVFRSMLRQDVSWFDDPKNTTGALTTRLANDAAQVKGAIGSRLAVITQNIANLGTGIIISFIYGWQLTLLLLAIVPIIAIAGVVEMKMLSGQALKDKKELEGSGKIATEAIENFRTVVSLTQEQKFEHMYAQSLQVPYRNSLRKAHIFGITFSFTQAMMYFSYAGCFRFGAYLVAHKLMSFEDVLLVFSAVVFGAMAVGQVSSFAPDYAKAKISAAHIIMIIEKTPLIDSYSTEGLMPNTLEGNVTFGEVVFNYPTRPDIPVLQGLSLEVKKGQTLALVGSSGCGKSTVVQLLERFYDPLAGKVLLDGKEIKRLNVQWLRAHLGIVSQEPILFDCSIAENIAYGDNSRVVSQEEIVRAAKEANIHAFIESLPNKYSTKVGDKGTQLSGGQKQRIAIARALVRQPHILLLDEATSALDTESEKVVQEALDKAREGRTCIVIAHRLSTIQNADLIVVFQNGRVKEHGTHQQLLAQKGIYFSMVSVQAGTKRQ
T4 sequence (Q8HZQ6 1-1283): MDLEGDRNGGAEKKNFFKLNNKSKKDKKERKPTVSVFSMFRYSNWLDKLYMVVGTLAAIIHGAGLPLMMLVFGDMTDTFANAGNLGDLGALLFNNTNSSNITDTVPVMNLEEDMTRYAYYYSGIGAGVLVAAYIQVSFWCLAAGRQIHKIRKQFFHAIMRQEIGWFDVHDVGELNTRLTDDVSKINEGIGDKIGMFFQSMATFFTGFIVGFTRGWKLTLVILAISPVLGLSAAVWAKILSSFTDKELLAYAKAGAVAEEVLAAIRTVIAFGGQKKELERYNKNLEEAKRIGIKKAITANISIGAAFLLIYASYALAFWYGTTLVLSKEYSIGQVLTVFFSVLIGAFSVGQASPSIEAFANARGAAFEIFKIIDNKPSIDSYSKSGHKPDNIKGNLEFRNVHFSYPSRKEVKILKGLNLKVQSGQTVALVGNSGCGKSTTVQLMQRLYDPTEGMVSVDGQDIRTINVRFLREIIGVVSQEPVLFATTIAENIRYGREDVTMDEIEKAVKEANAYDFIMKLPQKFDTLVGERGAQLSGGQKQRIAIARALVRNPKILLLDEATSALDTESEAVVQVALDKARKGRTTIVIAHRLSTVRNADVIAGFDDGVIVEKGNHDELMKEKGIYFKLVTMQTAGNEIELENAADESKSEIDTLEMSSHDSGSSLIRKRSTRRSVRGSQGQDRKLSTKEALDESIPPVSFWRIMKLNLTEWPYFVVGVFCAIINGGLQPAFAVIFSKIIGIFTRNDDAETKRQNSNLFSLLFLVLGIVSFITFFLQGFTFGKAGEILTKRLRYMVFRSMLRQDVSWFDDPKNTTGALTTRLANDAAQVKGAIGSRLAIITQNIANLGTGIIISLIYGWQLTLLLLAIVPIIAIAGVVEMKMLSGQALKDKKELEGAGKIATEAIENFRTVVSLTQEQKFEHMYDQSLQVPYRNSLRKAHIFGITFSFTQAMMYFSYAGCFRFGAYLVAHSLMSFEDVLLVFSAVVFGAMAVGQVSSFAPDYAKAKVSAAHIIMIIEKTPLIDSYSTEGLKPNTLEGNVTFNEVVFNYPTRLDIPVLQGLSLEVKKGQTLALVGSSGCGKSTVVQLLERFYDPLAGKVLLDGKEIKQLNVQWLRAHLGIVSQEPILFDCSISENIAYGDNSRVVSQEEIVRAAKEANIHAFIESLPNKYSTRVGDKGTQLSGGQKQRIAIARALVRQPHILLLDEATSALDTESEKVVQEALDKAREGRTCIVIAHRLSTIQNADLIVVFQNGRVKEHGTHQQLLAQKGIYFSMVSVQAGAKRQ

Structure (SMILES)	IC50 (cynomolgus monkey Mdr1 [6]) [µM]	IC50 (human MDR1 [7]; [11]) [µM]	IC50 (human MDR1 [7]; [12]) [µM]	IC50 (cynomolgus monkey Mdr1 [8]) [µM]	IC50 (rat Mdr1a [9]; [13]) [µM]	IC50 (rat Mdr1a [9]; [14]) [µM]	IC50 (mouse Mdr1a [10]; [15]) [µM]	IC50 (mouse Mdr1a [10]; [16]) [µM]	further results
CN(C)C(=O)C(CCN1CCC(O)(c2ccc(Cl)cc2)CC1)(c1ccccc1)c1ccccc1 [Loperamide]	6.3 ± 2.27	38.3 ± 4.59	4.75 ± 0.32	1.36 ± 0.34	11.1 ± 4.28	1.01 ± 0.49	6.5 ± 1.1	0.96 ± 0.33	efflux ratio at 120 min, 1 µM [1]: 0.49 ± 0.03; efflux ratio at 120 min, 1 µM (human MDR1 [2]): 48.7 ± 3.51; efflux ratio at 120 min, 1 µM (rat Mdr1a [3]): 10.5 ± 2.34; efflux ratio at 120 min, 1 µM (mouse Mdr1a [4]): 16 ± 2.75; efflux ratio at 120 min, 1 µM (cynomolgus monkey Mdr1 [5]): 6.38 ± 0.55; efflux ratio at 120 min, 1 µM (human BCRP): 2 ± 0.23
COCC(=O)O[C@]1(CCN(C)CCCc2nc3ccccc3[nH]2)CCc2cc(F)ccc2[C@@H]1C(C)C [Mibefradil]	4.84 ± 1.82	–	–	3.61 ± 2.04	7.42 ± 2.76	1.11 ± 0.21	7.15 ± 4.58	–	–
CCOC(=O)C1=C(C)NC(C)=C(C(=O)OC)C1c1cccc([N+](=O)[O-])c1 (centres unmarked) [Nitrendipine]	3.15 ± 1.7	> 50	> 50	17.5 ± 4.96	4.02 ± 1.64	6.34 ± 2.68	> 50	15.7 ± 5.68	–
CC(C)(C)NC(=O)[C@@H]1C[C@@H]2CCCC[C@@H]2CN1C[C@@H](O)[C@H](Cc1ccccc1)NC(=O)[C@H](CC(N)=O)NC(=O)c1ccc2ccccc2n1 [Saquinavir]	12.3 ± 5.44	–	–	20.7 ± 7.67	25 ± 11.4	12.3 ± 5.02	–	–	–
CCCc1nc2c(C)cc(-c3nc4ccccc4n3C)cc2n1Cc1ccc(-c2ccccc2C(=O)O)cc1 [Telmisartan]	4.06 ± 1.69	15.2 ± 5.66	1.81 ± 0.87	1.55 ± 0.53	11.6 ± 3.91	2.72 ± 1.26	2.6 ± 1.59	2.28 ± 0.97	efflux ratio at 120 min, 1 µM [1]: 0.38 ± 0.06; efflux ratio at 120 min, 1 µM (rat Mdr1a [3]): 2.65 ± 0.75; efflux ratio at 120 min, 1 µM (mouse Mdr1a [4]): 2.2 ± 0.27; efflux ratio at 120 min, 1 µM (cynomolgus monkey Mdr1 [5]): 3.18 ± 0.63; efflux ratio at 120 min, 1 µM (human BCRP): 12.2 ± 0.95
Cc1ccccc1C(=O)Nc1ccc(C(=O)N2CCCC(O)c3cc(Cl)ccc32)c(C)c1 (centres unmarked) [Tolvaptan]	6.68 ± 1.63	> 30	1.28 ± 0.44	5.11 ± 1.65	8.79 ± 2.81	4.14 ± 1.47	10.9 ± 1.46	3.92 ± 0.87	–
O[C@@H](COc1cccc2ncccc12)CN1CCN([C@@H]2c3ccccc3[C@@H]3[C@H](c4ccccc42)C3(F)F)CC1 [Zosuquidar]	0.05 ± 0.02	–	–	0.12 ± 0.09	0.6 ± 0.29	0.57 ± 0.21	0.37 ± 0.13	0.49 ± 0.26	–
CC(C)(C)NCC(O)COc1ccc(NC(=O)NC2CCCCC2)cc1 (centres unmarked) [talinolol]	–	–	–	–	–	–	–	–	Inhibition of digoxin transport IC50±SD, hMDR1 (human MDR1 [7]; probe 3H-digoxin 1 µM, 120 min): no inhibition; Inhibition of quinidine transport IC50±SD, hMDR1 (human MDR1 [7]; [17]): no inhibition; Inhibition of quinidine transport IC50±SD, cyMDR1 (cynomolgus monkey Mdr1 [8]; probe 3H-quinidine 0.1 µM): no inhibition; Inhibition of digoxin transport IC50±SD, rMDR1 (rat Mdr1a [9]; probe 3H-digoxin 1 µM, 120 min): no inhibition; Inhibition of quinidine transport IC50±SD, rMDR1 (rat Mdr1a [9]; probe 3H-quinidine 1 µM, 30 min): no inhibition; Inhibition of digoxin transport IC50±SD, mMDR1 (mouse Mdr1a [10]; probe 3H-digoxin 1 µM, 120 min): no inhibition; Inhibition of quinidine transport IC50±SD, mMDR1 (mouse Mdr1a [10]; [17]): no inhibition
